The values that follow come from publication PMC11081458 (Nature structural & molecular biology, 2024).

The target of one experiment is Sas6T (Ruminococcus bromii, UniProt A0ABF7PL48). In words: Isothermal titration calorimetry with Sas6T. Conditions: for n (binding stoichiometry) / binding by ITC (in words): ITC; for n (binding stoichiometry): fitted n. Background: Isothermal titration calorimetry measures the heat released or taken up as one component is titrated into another.
Experiment [1] concerns the target T1, BIg–RbCBM74–BIg (Ruminococcus bromii, UniProt A0ABF7PL48). In words: Isothermal titration calorimetry with BIg–RbCBM74–BIg.
For a further experiment, the target named is RbCBM26 (Ruminococcus bromii, UniProt A0ABF7PL48). In words: Isothermal titration calorimetry with RbCBM26. Conditions: for binding by ITC (in words) / n (binding stoichiometry): ITC; for n (binding stoichiometry): fitted n.
For experiment [2], the target named is T1, BIg–RbCBM74–BIg. In words: Native mass spectrometry titration, BIg–RbCBM74–BIg. Conditions: native MS, 5 μM protein, 200 mM ammonium acetate.
Experiment [3] has as its system F326A site-directed mutant within the BIg–RbCBM74–BIg construct. In words: Isothermal titration calorimetry with F326A mutant. As to conditions: ITC.
Experiment [4] concerns H289A site-directed mutant within the BIg–RbCBM74–BIg construct. In words: Isothermal titration calorimetry with H289A mutant. As to conditions: ITC.
The test system of experiment [5] is W373A site-directed mutant within the BIg–RbCBM74–BIg construct. In words: Isothermal titration calorimetry with W373A mutant.
Experiment [6] deals with previously studied CBM26 modules. Conditions: read-out: dissociation constant (Kd) range; cited from earlier work.

Chain of Sas6T (A0ABF7PL48 31-665 limits assumed): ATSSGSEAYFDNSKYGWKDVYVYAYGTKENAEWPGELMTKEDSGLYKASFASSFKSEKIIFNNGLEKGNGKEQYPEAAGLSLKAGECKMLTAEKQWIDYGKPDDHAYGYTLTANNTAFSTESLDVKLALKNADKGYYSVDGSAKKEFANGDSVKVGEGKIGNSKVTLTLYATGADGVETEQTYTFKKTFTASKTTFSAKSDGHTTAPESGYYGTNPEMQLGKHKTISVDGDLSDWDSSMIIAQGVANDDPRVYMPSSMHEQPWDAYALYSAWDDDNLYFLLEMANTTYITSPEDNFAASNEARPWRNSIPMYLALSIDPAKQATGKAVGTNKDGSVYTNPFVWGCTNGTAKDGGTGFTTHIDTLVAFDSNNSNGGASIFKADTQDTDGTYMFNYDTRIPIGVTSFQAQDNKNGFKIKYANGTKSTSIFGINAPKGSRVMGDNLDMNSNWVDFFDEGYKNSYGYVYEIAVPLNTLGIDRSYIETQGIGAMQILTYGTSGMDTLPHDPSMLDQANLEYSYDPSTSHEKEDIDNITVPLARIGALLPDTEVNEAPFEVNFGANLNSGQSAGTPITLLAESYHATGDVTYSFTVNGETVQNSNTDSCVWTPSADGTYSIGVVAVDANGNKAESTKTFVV
Chain of RbCBM26 (A0ABF7PL48 31-129 limits assumed): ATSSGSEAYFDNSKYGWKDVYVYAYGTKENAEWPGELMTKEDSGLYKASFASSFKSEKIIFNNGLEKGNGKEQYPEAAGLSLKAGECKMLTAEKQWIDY
T1 sequence (A0ABF7PL48 134-665 limits assumed): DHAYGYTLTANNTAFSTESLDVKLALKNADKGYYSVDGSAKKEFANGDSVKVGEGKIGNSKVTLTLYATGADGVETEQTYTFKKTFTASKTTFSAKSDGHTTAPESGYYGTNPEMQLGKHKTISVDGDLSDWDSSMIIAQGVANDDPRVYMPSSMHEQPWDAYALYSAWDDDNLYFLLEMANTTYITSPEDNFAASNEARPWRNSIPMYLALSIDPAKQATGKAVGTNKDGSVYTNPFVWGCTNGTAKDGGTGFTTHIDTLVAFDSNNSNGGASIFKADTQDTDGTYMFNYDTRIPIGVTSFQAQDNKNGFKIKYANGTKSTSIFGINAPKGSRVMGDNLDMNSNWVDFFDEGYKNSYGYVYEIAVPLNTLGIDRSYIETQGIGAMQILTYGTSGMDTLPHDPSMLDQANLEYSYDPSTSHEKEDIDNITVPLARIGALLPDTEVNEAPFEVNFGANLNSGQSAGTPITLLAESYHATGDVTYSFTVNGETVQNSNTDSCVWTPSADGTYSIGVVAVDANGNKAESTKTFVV

For the compound `OC[C@H]1O[C@@H]2O[C@H]3[C@H](O)[C@@H](O)[C@@H](O[C@H]4[C@H](O)[C@@H](O)[C@@H](O[C@H]5[C@H](O)[C@@H](O)[C@@H](O[C@H]6[C@H](O)[C@@H](O)[C@@H](O[C@H]7[C@H](O)[C@@H](O)[C@@H](O[C@H]1[C@H](O)[C@H]2O)O[C@@H]7CO)O[C@@H]6CO)O[C@@H]5CO)O[C@@H]4CO)O[C@@H]3CO` [ACX, α-cyclodextrin], the “n (binding stoichiometry)” value is 1.0 ± 0.4 at Sas6T and 0.8 ± 0.13 on RbCBM26. Moreover, the “binding by ITC (in words)” value on BIg–RbCBM74–BIg [1] is on record as “no detectable affinity”; on RbCBM26, “binds”.

For orientation: Kd means the concentration at which binding is half-saturated. As to `OC[C@H]1O[C@H](O[C@H]2[C@H](O)[C@@H](O)[C@@H](O[C@H]3[C@H](O)[C@@H](O)[C@@H](O[C@H]4[C@H](O)[C@@H](O)[C@@H](O[C@H]5[C@H](O)[C@@H](O)[C@@H](O[C@H]6[C@H](O)[C@@H](O)[C@@H](O[C@H]7[C@H](O)[C@@H](O)[C@@H](O[C@H]8[C@H](O)[C@@H](O)C(O)O[C@@H]8CO)O[C@@H]7CO)O[C@@H]6CO)O[C@@H]5CO)O[C@@H]4CO)O[C@@H]3CO)O[C@@H]2CO)[C@H](O)[C@@H](O)[C@@H]1O` (stereo partly shown) [G8, maltooctaose], the values for the Kd on Sas6T and on RbCBM26 were 496 ± 260 µM and 285 ± 84 µM, respectively. The “binding by ITC (in words)” value at Sas6T was “in the hundreds of μM”.

Turning to maltoheptaose [G7], the entries for the “binding by ITC (in words)” value at Sas6T, on BIg–RbCBM74–BIg [1] and at RbCBM26 were “in the hundreds of μM”, “no detectable affinity” and “binds”, respectively.

Turning to `OC[C@H]1O[C@H](O[C@H]2[C@H](O)[C@@H](O)[C@@H](O[C@H]3[C@H](O)[C@@H](O)[C@@H](O[C@H]4[C@H](O)[C@@H](O)[C@@H](O[C@H]5[C@H](O)[C@@H](O)[C@@H](O[C@H]6[C@H](O)[C@@H](O)[C@@H](O[C@H]7[C@H](O)[C@@H](O)[C@@H](O[C@H]8[C@H](O)[C@@H](O)[C@@H](O[C@H]9[C@H](O)[C@@H](O)[C@@H](O[C@H]%10[C@H](O)[C@@H](O)[C@@H](O[C@H]%11[C@H](O)[C@@H](O)[C@@H](O[C@H]%12[C@H](O)[C@@H](O)[C@@H](O[C@H]%13[C@H](O)[C@@H](O)[C@@H](O[C@H]%14[C@H](O)[C@@H](O)C(O)O[C@@H]%14CO)O[C@@H]%13CO)O[C@@H]%12CO)O[C@@H]%11CO)O[C@@H]%10CO)O[C@@H]9CO)O[C@@H]8CO)O[C@@H]7CO)O[C@@H]6CO)O[C@@H]5CO)O[C@@H]4CO)O[C@@H]3CO)O[C@@H]2CO)[C@H](O)[C@@H](O)[C@@H]1O` (stereo partly shown) [G14, maltotetradecaose], the Kd on BIg–RbCBM74–BIg [2] was found to be 1.29 ± 0.1 µM.

Consider `OC[C@H]1O[C@H](O[C@H]2[C@H](O)[C@@H](O)[C@@H](O[C@H]3[C@H](O)[C@@H](O)[C@@H](O[C@H]4[C@H](O)[C@@H](O)[C@@H](O[C@H]5[C@H](O)[C@@H](O)[C@@H](O[C@H]6[C@H](O)[C@@H](O)[C@@H](O[C@H]7[C@H](O)[C@@H](O)[C@@H](O[C@H]8[C@H](O)[C@@H](O)[C@@H](O[C@H]9[C@H](O)[C@@H](O)[C@@H](O[C@H]%10[C@H](O)[C@@H](O)C(O)O[C@@H]%10CO)O[C@@H]9CO)O[C@@H]8CO)O[C@@H]7CO)O[C@@H]6CO)O[C@@H]5CO)O[C@@H]4CO)O[C@@H]3CO)O[C@@H]2CO)[C@H](O)[C@@H](O)[C@@H]1O` (stereo partly shown) [G10, maltodecaose], for which the “decrease in affinity relative to BIg–RbCBM74–BIg” value in experiment [3] and in experiment [4] was 10–20 fold throughout. The compound further came in with a Kd at BIg–RbCBM74–BIg [2] of 2.16 ± 0.53 µM. The “n (binding stoichiometry)” value on Sas6T was found to be 0.8 ± 0.07; on BIg–RbCBM74–BIg [1] (ITC, fitted n), 0.9 ± 0.20; on RbCBM26 it was 0.7 ± 0.21. The “binding by ITC (in words)” value in experiment [5] is recorded as “lost binding”.

Regarding `OC[C@H]1O[C@@H]2O[C@H]3[C@H](O)[C@@H](O)[C@@H](O[C@H]4[C@H](O)[C@@H](O)[C@@H](O[C@H]5[C@H](O)[C@@H](O)[C@@H](O[C@H]6[C@H](O)[C@@H](O)[C@@H](O[C@H]7[C@H](O)[C@@H](O)[C@@H](O[C@H]8[C@H](O)[C@@H](O)[C@@H](O[C@H]1[C@H](O)[C@H]2O)O[C@@H]8CO)O[C@@H]7CO)O[C@@H]6CO)O[C@@H]5CO)O[C@@H]4CO)O[C@@H]3CO` [β-cyclodextrin], the Kd in experiment [6] is 350 to 600 µM.

Turning to `OC[C@H]1O[C@H](OC[C@H]2O[C@H](O[C@H]3[C@H](O)[C@@H](O)[C@@H](O[C@H]4[C@H](O)[C@@H](O)[C@@H](OC[C@H]5O[C@H](O[C@H]6[C@H](O)[C@@H](O)[C@@H](O[C@H]7[C@H](O)[C@@H](O)C(O)O[C@@H]7CO)O[C@@H]6CO)[C@H](O)[C@@H](O)[C@@H]5O)O[C@@H]4CO)O[C@@H]3CO)[C@H](O)[C@@H](O)[C@@H]2O)[C@H](O)[C@@H](O)[C@@H]1O` (stereo partly drawn) [glucosyl-α1,6-maltotriosyl-α 1,6-maltotriose], the “binding by ITC (in words)” value on Sas6T, on BIg–RbCBM74–BIg [1] and at RbCBM26 was “None of the constructs bound” in each case.
